The subject of test [1] is intracellular ROS in rabbit corneal epithelial cells. The experiment in a line: Intracellular ROS (H2DCFDA probe) in NaCl-treated corneal epithelial cells. The test is classed as cell-based. The protocol: We therefore examined the effects of PDSP on the intracellular ROS and GSH levels in NaCl-treated (HOP) rabbit corneal epithelial cells. Briefly, rabbit corneal epithelial cells were pretreated with 10 μM PDSP or a negative control peptide (ConP) for 20 hours, followed by treatment with NaCl to induce hyperosmotic stress. After NaCl treatment for another 24 hours, cells were assessed for ROS using a 2′,7′-dichlorodihydrofluorescein diacetate (H2DCFDA) probe, which is an ROS indicator dye. […]
Intracellular ROS generation was assayed using 2′,7′-dichlorodihydrofluorescein diacetate (H2DCFDA; Molecular Probes, Eugene, Oreg.) which, when oxidized by ROS, releases the green fluorescent compound 2′,7′-dichlorofluorescein (DCF). […] Fluorescence (excitation, 488 nm; emission, 520 nm) was measured with a Spectra MAX GEMINI Reader (Molecular Devices, Sunnyvale, Calif., USA). The background fluorescence from control wells without the addition of H2DCFDA was subtracted from the experimental readings.
To investigate the effect of hyperosmotic stress on the intracellular ROS formation, rabbit corneal epithelial cells were cultured in a hyperosmotic medium (463 mOsM) by adding 90 mM NaCl for 24 hours. The intracellular ROS levels were detected by H2DCFDA probe and measured the formation of DCF-fluorescence by spectrofluorometer.

For a further test, the system named is MCP-1 mRNA. The experiment in a line: Ocular MCP-1 mRNA by quantitative real-time PCR in CEC dry eye mice. The test is classed as in vivo, C57BL6 mice. The settings on record: CEC 14 days, then topical PDSP for 5 days. The procedure:
Dry eye is associated with abnormalities in the pre-corneal tear film and subsequent inflammatory changes in the entire ocular surface including the adnexa, conjunctiva and cornea. (see, Hessen et al., “Dry eye: An Inflammatory Ocular Disease,” J. Ophthalmic Vis. Res., 2014, 9(2): 240-250). Therefore, the effects of PDSPs in corneal inflammatory responses were next examined. Briefly, C57BL6 mice were housed in CEC for 14 days (Day 0) and then treatment with PDSP or vehicle were performed for additional 5 days (Day 5). Then, mRNA levels for inflammatory factors were evaluated by quantitative real-time PCR.
The total RNA was extracted from cells using TRIzol (Invitrogen) and treated with RNase free DNase I (Qiagen, Santa Clarita, CA) to remove genomic DNA and then purified with an RNA purification kit (Dynabeads; Invitrogen). […] Quantitative real-time PCR was performed in a GeneAmp 7700 sequence detection system (Applied Biosystems, Foster City, CA). […] All determinations were measured in triplicate. The cycle threshold (Ct) values corresponded to the PCR cycle number at which fluorescence emission in real time reaches a threshold above the base-line emission were analyzed using GeneAmp 7700 SDS software. The Ct value of the PCR product of interest and a control mRNA (GAPDH) were then used to calculate relative quantities of mRNA between samples.
(In general: Real-time PCR tracks product formation cycle by cycle.)

For test [2], the system named is desiccating stress-induced dry eye. Put plainly: Corneal fluorescein staining in desiccating stress-induced dry eye (CEC) mice. The test is classed as in vivo, C57BL/6 mice. The settings on record: CEC 14 days, then peptide for 3 days (FIG. 11).
In test [3] the test system is GSH in rabbit corneal epithelial cells. Put plainly: Glutathione (GSH) level (OPA probe) in NaCl-treated corneal epithelial cells. Type of test: cell-based. Conditions: 10 μM PDSP, isotonic medium, compared to untreated. The protocol: We therefore examined the effects of PDSP on the intracellular ROS and GSH levels in NaCl-treated (HOP) rabbit corneal epithelial cells. Briefly, rabbit corneal epithelial cells were pretreated with 10 μM PDSP or a negative control peptide (ConP) for 20 hours, followed by treatment with NaCl to induce hyperosmotic stress. After NaCl treatment for another 24 hours, cells were assessed for ROS using a 2′,7′-dichlorodihydrofluorescein diacetate (H2DCFDA) probe, which is an ROS indicator dye. H2DCFDA can diffuse into cells, where its acetate ester linkages are cleaved by intracellular esterases and be oxidized by ROS, which converts the nonfluorescent dichlorodihydrofluorescein diacetate (H2DCFDA) to highly fluorescent […] (DCF).
Limbal stem cells were isolated from 6-month-old New Zealand white rabbits and continuously cultivated for 14 days by DMEM/F-12 basal medium based cell-suspension culture to achieve corneal-liked epithelial cell differentiation as previously described (Ho et al., 2013). […]
The GSH levels were quantified using a Glutathione Assay Kit (BioVision Research Products, Mountain View, Calif.) according to the manufacturer's recommendations. […] The fluorescence was read at 340 nm for excitation and 420 nm for emission on a SPECTRAmax GEMINI XS fluorescence microplate spectrophotometer (Molecular Devices, Sunnyvale, Calif.).

For another test, the system named is MMP-9 activity. Put plainly: MMP-9 activity by gelatin zymography in NaCl-treated corneal epithelial cells. The test is classed as cell-based, rabbit. The settings on record: PDSP pretreatment 20 hours, then hyperosmotic medium (463 mOsM) 24 hours. The procedure: Limbal stem cells were isolated from 6-month-old New Zealand white rabbits and continuously cultivated for 14 days by DMEM/F-12 basal medium based cell-suspension culture to achieve corneal-liked epithelial cell differentiation as previously described (Ho et al., 2013). To induce ROS or MMP-9 activity caused by hyperosmotic stress, cells were incubated overnight in hypertonic media (463 mOsm) achieved by addition of 90 mM NaCl. Cells cultured in DMEM/F-12 basal medium (309 mOsm) was used as negative control. To detect the preventive effect on hyperosmotic stress-induced ROS or MMP-9 activity, cells were pretreated with 10 μM PDSP for 20 hours before the treatment of NaCl.
To detect MMP-9 activity, 10 μL of culture medium was used to perform gelatin zymography as previous described method (Li et al., 2004). The band intensity was evaluated in zymography with a model GS-700 imaging densitometer (Bio-Rad Laboratories, Hercules, Calif.) and analyzed using Labworks 4.0 software.
To investigate the effect of PDSP on hyperosmotic stress-induced MMP-9 expression in corneal epithelial cells, cells were pretreated with the PDSP or control peptide (ConP) for 20 hours and then exposed the cells to hyperosmotic medium (463 mOsM) for another 24 hours. […] However, the PDSP pretreatment repressed the MMP-9 mRNA expression by a factor of 2-fold.

The record followed here is patent publication US11760784B2, “Compositions comprising PEDF-derived short peptides and uses thereof” (BRIM Biotechnology, Inc., priority 2016, dated 2023).

With “PDSP: 29mer, residues 93-121 of human PEDF: SLGAEQRTESIIHRALYYDLISSPDIHGT (SEQ ID NO:4) (listed as Homo sapiens)”, the “DCF fluorescence without HOP (peptide alone)” value in test [1] (10 μM PDSP, isotonic medium, compared to untreated) is “did not increase DCF fluorescence”. Further, the “suppression of DCF-fluorescence level compared to cells treated with NaCl alone” value in test [1] (10 μM peptide pretreatment 20 hours, then hyperosmotic medium (463 mOsM, 90 mM NaCl) 24 hours) is on record as 1.3 fold. Besides, the “repression of ocular MCP-1 mRNA expression compared to vehicle-treated group” value in the test with MCP-1 mRNA came to 1.7 fold. In addition, the “corneal damage by corneal fluorescein staining, human vs mouse 29mer” value in test [2] is recorded as “protection from corneal surface damages”; in test [2] (listed as human PDSP) it was “capable of restore the ocular surface damages”. For the same substance, the “GSH level without HOP stress (peptide alone)” value in test [3] is “slight increase”. In addition, the “repression of MMP-9 activity (gelatin zymography)” value in the test on MMP-9 activity was 3 fold.
